In assay [1] the target is T1, KMT9 (Homo sapiens, UniProt Q9Y5N5).
T1 sequence (Q9Y5N5 1-214): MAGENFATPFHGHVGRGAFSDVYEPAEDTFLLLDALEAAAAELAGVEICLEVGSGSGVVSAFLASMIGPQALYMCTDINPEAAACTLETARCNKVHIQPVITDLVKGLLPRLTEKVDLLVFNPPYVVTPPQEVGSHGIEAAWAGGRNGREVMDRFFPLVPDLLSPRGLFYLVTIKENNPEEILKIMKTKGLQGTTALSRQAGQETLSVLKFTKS
T1 sequence (Q9UI30 1-120 isoform Q9UI30-2 partner): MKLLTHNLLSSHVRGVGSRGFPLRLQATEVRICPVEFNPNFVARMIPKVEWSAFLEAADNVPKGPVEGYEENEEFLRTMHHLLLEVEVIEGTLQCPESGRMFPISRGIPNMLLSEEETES
As to the kind of experiment: KMT9 thermal shift assay (SyproOrange). The following applies: ΔTm; 500 µM compound, 2 μM KMT9, 5X SO; read-out: Thermal shift. The class given is binding. The protocol: The assay was carried out in 96-well Hard-Shell PCR plates (Bio-Rad Laboratories Inc.). Assay buffer consisted of 50 mM BTP, 1 mM MgCl2 and 1 mM DTT at a pH of 8.5 (adjusted using 1 M HCl and 1 M NaOH). 20X inhibitor stock (in DMSO), 2X enzyme stock and 4X SyproOrange (SO) stock (both in assay buffer) were prepared. 1 μL of 20X compound, 4 μL of assay buffer, 10 μL of 2X KMT9 and 5 μL of 4X SO were pipetted. For the no-compound control, 20X inhibitor stock was replaced by DMSO. The final volume was 20 μL. The plate was spun down at 700 rpm for 1 min using a Hettich UNIVERSAL 320 centrifuge and incubated at 25° C., shaking at 600 rpm. After incubation, the plate was spun down for 1 min at 700 rpm and measurement was conducted using a CFX96 Touch Real-Time PCR Detection System (Bio-Rad Laboratories Inc.). The plate was equilibrated at 20° C. for 4 min and then heated stepwise at a rate of 1° C. per 15 s until 95° C. After every step, fluorescence was measured in FRET mode. Calculation of melting points was conducted by a Boltzman sigmoidal model using GraphPad Prism 7.0.
For the results of the thermal shift assay shown as “Thermal shift” in Table 1, “++++” represents a ΔTm of greater 20 K, “+++” represents a ΔTm of greater than 15 K and less than or equal to 20 K (15 K<ΔTm≤20 K); “++” represents a ΔTm of greater than 10 K and less than or equal to 15 K (10 K<ΔTm ≤ 15 K); “+” represents a ΔTm of equal to or less than 10 K (ΔTm≤10 K).

The target in assay [2] is T1, KMT9. In words: Microscale thermophoresis (MST) KMT9 binding. Conditions: microscale thermophoresis, His-tag labelled KMT9 (20 nM); read-out: MST. How it is done: To determine the binding affinity of the compounds according to the present invention and KMT9, microscale thermophoresis (MST) analysis was performed with a NanoTemper Monolith NT.115 instrument (NanoTemper Technologies GmbH). KMT9 was labelled with a RED-Tris-NTA labelling kit (NanoTemper Technologies GmbH) based on the manufacturer's instructions. Buffer including 25 mM HEPES (pH 7.5), 100 mM NaCl, 1 mM DTT and 0.05% Tween was used for the reaction buffer. Varying concentrations of the tested compounds of formula (I) as indicated in Table 1 were titrated against His-tag labelled KMT9 proteins (20 nM). Samples were loaded into standard Capillaries (NanoTemper Technologies GmbH) and MST measurements were performed using 40% MST power and 100% LED power. For each set of binding experiments, MST measurement was carried out with Binding Affinity module in MO.Control program under Nano-RED Excitation. Datasets were processed with the MO.Affinity Analysis software (NanoTemper Technologies GmbH).
For the results of the microscale thermophoresis (MST) assay shown as “MST” in Table 1, “A” represents a Kd of equal to or less than 10 nM (Kd≤10 nM); “B” represents a Kd of greater than 10 nM and equal to or less than 100 nM (10 nM<Kd<100 nM); “C” represents a Kd of greater than 100 nM and equal to or less than 1000 nM (100 nM<Kd ≤ 1000 nM); “D” represents a Kd of greater than 1000 nM (1000 nM<Kd).

Assay [3] has as its target T1, KMT9. In words: KMT9 methyltransferase inhibition assay, 3H-SAM scintillation (entries 1-154). The class given is biochemical. The following applies: entries 1-154: 3H-SAM assay, 25 nM KMT9, 5 μM ETF1. How it is done: The assay was carried out in 0.5 mL Eppendorf tubes in duplicates. Assay buffer consisted of 50 mM BTP, 1 mM MgCl2, 1 mM DTT and 0.01% Triton-X^100 at a pH of 8.5 (adjusted using 1 M HCl and 1 M NaOH). 20X inhibitor stock (in DMSO), 2X enzyme stock and 4X substrate mix (both in assay buffer) were prepared. The substrate mix consisted of Tritium-labelled S-adenosylmethionine (3H-SAM), S-adenosylmethionine (SAM) and eukaryotic peptide chain release factor subunit1 (Homo sapiens, residues 140-275)(ETF1). Final assay concentrations were set to 25 nM KMT9, 0.3 μM 3H-SAM, 0.7 µM SAM and 5 μM ETF1. […] 5 μL of 4x substrate mix was added to initiate the reaction. The final reaction volume was 20 μL. For the positive control, the compound of formula (I) was replaced by DMSO; for the negative control, the compound of formula (I) was replaced by DMSO and KMT9 was replaced by assay buffer. The reaction mix was incubated in an Eppendorf thermomixer comfort at 30° C. for 2 h, shaking at 300 rpm. The reaction was quenched using 5 μL 50% trichloroacetic acid (TCA) and incubated at 25° C. for 5 minutes. 22 μL of the mixture was transferred into 96-well MultiScreen@HTS FB filter plates (Merck KGaA, Darmstadt, Germany) and washed four times with 10% TCA and two times with 100% ethanol. The plate was dried overnight, the filters were transferred into individual 6 mL Pony Vials (Perkin Elmer Inc, Waltham, MA, USA) and incubated in 3 mL of Ultima Gold scintillation cocktail (Perkin Elmer Inc, Waltham, MA, USA) for 30 minutes. The scintillation signal was measured for 3x 1 min using TriCarb 2910 TR (Perkin Elmer) scintillation counter in 3H CPM mode (LL: 0, UL: 18.6). Inhibition was calculated using the following formula: […]
With xc: signal of compound, Xpos: mean signal of positive control, Xneg: mean signal of negative control. Data fitting was carried out by GraphPad 7.0 using nonlinear fit ([Inhibitor]vs. response-variable slope (four parameters)).
For the results of the methyltransferase inhibition assay shown as “Inhibition” in Table 1, “I” represents an IC50 less than 0.1 μM, “II” represents an IC50 equal or higher than 0.1 μM and less than 1 μM, “III” represents an IC50 equal or higher than 1 µM and less than 10 µM and “IV” represents an IC50 equal or higher than 10 µM

Where only a bound is given, the exact number is not on record here.

For the molecule `CNc1ncnc2c1ccn2[C@@H]1C[C@H](CNCCCNCCc2ccccc2)[C@@H](O)[C@H]1O` [291 (188), (1R,2S,3R,5R)-3-(4-(methylamino)-7H-pyrrolo[2,3-a]pyrimidin-7-yl)-5-(((3-(phenethylamino)propyl)amino)methyl) cyclopentane-1,2-diol], the ΔTm at 500 µM in assay [1] lay within 10 to 15 °C. For the same molecule, the Kd in assay [2] was more than 1000 nM. For the same molecule, the IC50 in assay [3] fell in the range of 1000 to 10000 nM.
Take `COCCn1cc(COc2ccc(CNCCCNC[C@H]3O[C@@H](n4cnc5c(N)ncnc54)[C@H](O)[C@@H]3O)cc2)nn1` [293 (190), (2R,3R,4S,5R)-2-(6-amino-9H-purin-9-yl)-5-(((3-((4-((1-(2-methoxyethyl)-1/-1,2,3-triazol-4-yl)methoxy)benzyl)amino)propyl)amino)methyl)tetrahydrofuran-3,4-diol]: in assay [1], the ΔTm at 500 µM is not above 10 °C. Further, the Kd in assay [2] was more than 1000 nM. The IC50 in assay [3] was more than 10000 nM.
Taken in the same sequence, the figures for `COCCn1cc(-c2ccc(CCNCCCNC[C@H]3O[C@@H](n4cnc5c(N)ncnc54)[C@H](O)[C@@H]3O)cc2)nn1` [295 (192), (2R,3R,4S,5R)-2-(6-amino-9H-purin-9-yl)-5-(((3-((4-(1-(2-methoxyethyl)-1H-1,2,3-triazol-4-yl)phenethyl)amino)propyl)amino)methyl)tetrahydrofuran-3,4-diol] were not above 10 °C, 100 to 1000 nM and more than 10000 nM.
Taken in the same sequence, the figures for `Nc1ncnc2c1ncn2[C@@H]1O[C@H](C(=O)NCCCNCCc2ccc(Oc3ccccc3)cc2)[C@@H](O)[C@H]1O` [297 (194), (2S,3S,4R,5R)-5-(6-amino-9H-purin-9-yl)-3,4-dihydroxy-N-(3-((4-phenoxyphenethyl)amino)propyl) tetrahydrofuran-2-carboxamide] were not above 10 °C, 100 to 1000 nM and 1000 to 10000 nM.
The corresponding values for `Nc1ncnc2c1ncn2[C@@H]1O[C@H](C(=O)NCCCNCCc2cccc(Oc3ccccc3)c2)[C@@H](O)[C@H]1O` [299 (196), (2S,3S,4R,5R)-5-(6-amino-9H-purin-9-yl)-3,4-dihydroxy-N-(3-((3-phenoxyphenethyl)amino)propyl) tetrahydrofuran-2-carboxamide] are 10 to 15 °C, 100 to 1000 nM and 1000 to 10000 nM.
On to `Nc1ncnc2c1ncn2[C@@H]1O[C@H](C(=O)NCCCNCCc2ccccc2)[C@@H](O)[C@H]1O` [301 (198), (2S,3S,4R,5R)-5-(6-amino-9H-purin-9-yl)-3,4-dihydroxy-N-(3-(phenethylamino)propyl) tetrahydrofuran-2-carboxamide], for which, in assay [1], the ΔTm at 500 µM was not above 10 °C. In addition, the Kd in assay [2] is 100 to 1000 nM. In assay [3], this molecule gave an IC50 of more than 10000 nM.
Turning to `Nc1ncnc2c1ncn2[C@@H]1O[C@H](C(=O)NCCCNC(=O)Cc2ccccc2)[C@@H](O)[C@H]1O` [303 (200)], the ΔTm at 500 µM in assay [1] was not above 10 °C. In assay [2], the Kd was more than 1000 nM. For the same molecule, the half-maximal inhibitory concentration (IC50) in assay [3] was more than 10000 nM.
Regarding `CCC(=O)NCCCNC(=O)[C@H]1O[C@@H](n2cnc3c(N)ncnc32)[C@H](O)[C@@H]1O` [305 (204), (2,3S,4R,5R)-5-(6-amino-9//-purin-9-yl)-3,4-dihydroxy-N-(3-propionamidopropyl) tetrahydrofuran-2-carboxamide], in assay [1], the ΔTm at 500 µM is not above 10 °C. For the same molecule, in assay [2], the Kd was more than 1000 nM. Further, in assay [3], the IC50 was more than 10000 nM.
The corresponding values for `CCNC(=O)NCCCNC(=O)[C@H]1O[C@@H](n2cnc3c(N)ncnc32)[C@H](O)[C@@H]1O` [307 (206), (2S,3S,4R,5R)-5-(6-amino-9H-purin-9-yl)-N-(3-(3-ethylureido)propyl)-3,4-dihydroxytetrahydrofuran-2-carboxamide] are not above 10 °C, more than 1000 nM and more than 10000 nM.
As to `CNc1ncnc2c1ccn2[C@@H]1O[C@H](CNCCCNCCc2ccccc2)[C@@H](O)[C@H]1O` [309 (208), (2R,3R,45,5R)-2-(4-(methylamino)-7H-pyrrolo[2,3-d]pyrimidin-7-yl)-5-(((3-(phenethylamino)pronyl)amino)methyl) tetrahydrofuran-3.4-diol], in assay [1], the ΔTm at 500 µM was 10 to 15 °C. Besides, the Kd in assay [2] is more than 1000 nM. In assay [3], this molecule had an IC50 of more than 10000 nM.
The corresponding values for `CNc1ncnc2c1c(C)cn2[C@@H]1O[C@H](CNCCCNCCc2ccccc2)[C@@H](O)[C@H]1O` [311 (210), (2R,3R,45,5R)-2-(5-methyl-4-(methylamino)-7//-pyrrolo[2,3-a]pyrimidin-7-yl)-5-(((3-(phenethylamino)propyl)amino)methyl)tetrahydrofuran-3,4-diol] are not above 10 °C, more than 1000 nM and more than 10000 nM.
On to `CCC(=O)NCCCNC[C@H]1O[C@@H](n2cnc3c(N)ncnc32)[C@H](O)[C@@H]1O` [313 (212), N-(3-((((2R,3S,4R,5R)-5-(6-amino-9//-purin-9-yl)-3,4-dihydroxytetrahydrofuran-2-yl)methyl)amino)propyl)propionamide], for which the ΔTm at 500 µM in assay [1] was not above 10 °C. The Kd in assay [2] was more than 1000 nM. For the same molecule, in assay [3], the IC50 was more than 10000 nM.
Taken in the same sequence, the figures for `CCC(=O)NCCNC[C@H]1O[C@@H](n2cnc3c(N)ncnc32)[C@H](O)[C@@H]1O` [315 (216), N-(2-((((2R,3S,4R,5R)-5-(6-amino-9H-purin-9-yl)-3,4-dihydroxytetrahydrofuran-2-yl)methyl)amino)ethyl)propionamide] were not above 10 °C, more than 1000 nM and more than 10000 nM.

Broadly, the IC50 is the concentration that gives 50% inhibition. Lower therefore signals greater potency in that assay.

The values above are taken from patent publication US20250188110A1, “SPECIFIC SMALL MOLECULE INHIBITORS THAT BLOCK KMT9 METHYLTRANSFERASE ACTIVITY AND FUNCTION” (ALBERT-LUDWIGS-UNIVERSITÄT FREIBURG, priority 2021, published 2025).
